This note sets out measurements from ChEMBL document CHEMBL5131519, “Conversion of a False Virtual Screen Hit into Selective JAK2 JH2 Domain Binders Using Convergent Design Strategies” (ACS Med Chem Lett, 2022).

Structures are written as SMILES.

Data set [1] addresses T1, Tyrosine-protein kinase JAK2 (Homo sapiens, UniProt O60674). The experiment in a line: Binding affinity to wild type JAK2 JH2 pseudokinase domain (unknown origin) expressed in Sf9 cells at 50 uM and measured upto 30 mins competitive fluorescence polarization assay. For orientation: In fluorescence polarisation assays a small probe gives low polarisation when free and higher when bound to something large.

A short description of the next data set: in vitro. On the set-up: dose or concentration left out as unconfirmed. As to conditions: PAMPA, pH 7.4. For orientation: PAMPA measures passive passage across an artificial lipid membrane.
Data set [2] concerns the target T1, Tyrosine-protein kinase JAK2. Description: Binding affinity to wild type JAK2 JH2 pseudokinase domain (unknown origin) expressed in Sf9 cells and measured upto 30 mins by competitive fluorescence polarization assay.
Data set [3] is described as follows: Binding affinity to wild type JAK2 JH1 catalytic domain (unknown origin) expressed in Sf9 cells and measured upto 30 mins by competitive fluorescence polarization assay. Set-up: species or system Homo sapiens.
Data set [4] addresses Tyrosine-protein kinase JAK2 (Homo sapiens, UniProt O60674, V617F). The experiment in a line: Binding affinity to wild type JAK2 JH2 pseudokinase domain (unknown origin) V617F mutant expressed in Sf9 cells and measured upto 30 mins by competitive fluorescence polarization assay.

By Papp is commonly meant the rate of passage across a membrane or cell layer, normalised by area and donor concentration. The Kd is the concentration at which binding is half-saturated.

T1 sequence (O60674 whole entry, the tested form may be a part): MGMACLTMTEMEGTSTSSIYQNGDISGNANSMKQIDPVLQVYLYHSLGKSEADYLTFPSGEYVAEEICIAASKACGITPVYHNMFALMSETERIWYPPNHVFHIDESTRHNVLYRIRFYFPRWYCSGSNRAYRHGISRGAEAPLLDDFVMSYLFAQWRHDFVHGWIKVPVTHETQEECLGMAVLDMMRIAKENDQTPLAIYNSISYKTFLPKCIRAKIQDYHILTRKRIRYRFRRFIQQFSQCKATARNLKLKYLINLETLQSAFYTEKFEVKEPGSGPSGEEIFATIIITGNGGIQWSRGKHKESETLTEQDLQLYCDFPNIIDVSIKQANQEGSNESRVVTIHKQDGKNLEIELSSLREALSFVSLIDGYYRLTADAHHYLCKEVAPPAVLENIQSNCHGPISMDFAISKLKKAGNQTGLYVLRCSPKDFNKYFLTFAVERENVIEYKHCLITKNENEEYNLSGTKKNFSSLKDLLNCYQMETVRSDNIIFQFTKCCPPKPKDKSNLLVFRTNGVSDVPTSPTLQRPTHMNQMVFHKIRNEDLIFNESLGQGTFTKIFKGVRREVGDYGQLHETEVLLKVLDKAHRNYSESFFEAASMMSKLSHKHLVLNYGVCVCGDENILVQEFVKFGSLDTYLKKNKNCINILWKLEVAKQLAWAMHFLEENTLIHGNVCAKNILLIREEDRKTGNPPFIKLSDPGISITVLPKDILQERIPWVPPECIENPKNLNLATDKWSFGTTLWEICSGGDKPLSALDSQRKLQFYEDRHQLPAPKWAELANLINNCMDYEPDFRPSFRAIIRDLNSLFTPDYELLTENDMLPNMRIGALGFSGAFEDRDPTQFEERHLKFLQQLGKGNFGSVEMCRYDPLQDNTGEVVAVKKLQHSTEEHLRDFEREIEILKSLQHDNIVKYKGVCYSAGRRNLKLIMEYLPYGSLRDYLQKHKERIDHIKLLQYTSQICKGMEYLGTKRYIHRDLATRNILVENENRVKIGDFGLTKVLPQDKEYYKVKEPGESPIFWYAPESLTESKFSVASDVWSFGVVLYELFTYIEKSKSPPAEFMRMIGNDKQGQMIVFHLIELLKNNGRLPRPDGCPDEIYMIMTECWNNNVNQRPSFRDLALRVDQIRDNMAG
Tyrosine-protein kinase JAK2 (Homo sapiens, UniProt O60674, V617F), sequence (O60674 whole entry V617F, the tested form may be a part): as the sequence (O60674 whole entry, the tested form may be a part) above, with V617F counted along it
Description for in vitro: Permeability of compound in PBS buffer at pH 7.4 at 500 mM incubated for 18 hrs by UV plate reader based PAMPA assay

In data set [1], `Nc1nc(Oc2ccc(NS(=O)(=O)CCC(=O)O)cc2)c2cc[nH]c2n1` came in with an Activity of 18%.

In turn, `Nc1nc(Oc2ccc(NC(=O)N[C@H](CCc3ccccc3)C(=O)O)cc2)c2cc[nH]c2n1` came in with an Activity in data set [1] of 46%.

Compound `Nc1nc(-c2ccc(S(=O)(=O)CCC(=O)O)cc2)c2cc[nH]c2n1` came in with an Activity in data set [1] of 4%.

`Nc1nc(Oc2ccc(NC(=O)NCCC(=O)O)cc2)c2cc[nH]c2n1`: the Activity in data set [1] turned out to be 30%.

`O=C(N[C@H](CO)[C@H](O)c1ccc([N+](=O)[O-])cc1)C(Cl)Cl` [CHLORAMPHENICOL]: the Papp at 18 h in the data set “in vitro” stood at 4.53 ×10⁻⁶ cm/s.

`Nc1nc(Oc2ccc(NC(=O)N[C@@H](CCCc3ccccc3)C(=O)O)cc2)c2cc[nH]c2n1`: the dissociation constant Kd in data set [2] is 587 nM.

With `Nc1nc(Oc2ccc(NC(=O)N[C@@H](CCc3ccccc3)C(=O)O)cc2)c2cc[nH]c2n1`, the values for the Kd in data set [2], in data set [3] and in data set [4] were 327 nM, 36100 nM and 179 nM, respectively.

`Nc1nc(Oc2ccc(NC(=O)CCCC(=O)O)cc2)c2cc[nH]c2n1` registered an Activity in data set [1] of 27%.

`Nc1nc(Oc2ccc(NC(=O)N[C@@H](Cc3ccccc3)C(=O)O)cc2)c2cc[nH]c2n1` returned a Kd in data set [2] of 2220 nM.

In the case of `Nc1nc(Oc2ccc(NC(=O)N[C@@H](COCc3ccccc3)C(=O)O)cc2)c2cc[nH]c2n1`, in data set [2], binding was characterised by a dissociation constant (Kd) of 590 nM.

Turning to `Nc1nc(Oc2ccc(NC(=O)N[C@H](Cc3ccccc3)C(=O)O)cc2)c2cc[nH]c2n1`, the equilibrium dissociation constant (Kd) in data set [2] was determined as 9900 nM.

In turn, `Nc1nc(Oc2ccc(NC(=O)CCC(=O)O)cc2)c2cc[nH]c2n1` yielded a Kd in data set [2] of 18800 nM.
